Measurements reported in publication PMC9329436, “Optimization of the 4-anilinoquin(az)oline scaffold as epidermal growth factor receptor (EGFR) inhibitors for chordoma utilizing a toxicology profiling assay platform” (Scientific Reports, 2022).

Experiments:
[1] = target: Aurora-B (Homo sapiens, UniProt Q96GD4); assay: 33PanQinase activity assay; format: biochemical; conditions: for Residual activity: Aurora-B, singlicate
Source text: (§1) Table S4. Profiling of two compounds at two concentrations against 320 wild-type protein kinases; singlicate measurement; Residual activities (% of control).

[2] = target: T1, Aurora-C (Homo sapiens, UniProt Q9UQB9); assay: 33PanQinase activity assay; format: biochemical; conditions: for Residual activity: Aurora-C, singlicate
T1 sequence (Q9UQB9 1-309): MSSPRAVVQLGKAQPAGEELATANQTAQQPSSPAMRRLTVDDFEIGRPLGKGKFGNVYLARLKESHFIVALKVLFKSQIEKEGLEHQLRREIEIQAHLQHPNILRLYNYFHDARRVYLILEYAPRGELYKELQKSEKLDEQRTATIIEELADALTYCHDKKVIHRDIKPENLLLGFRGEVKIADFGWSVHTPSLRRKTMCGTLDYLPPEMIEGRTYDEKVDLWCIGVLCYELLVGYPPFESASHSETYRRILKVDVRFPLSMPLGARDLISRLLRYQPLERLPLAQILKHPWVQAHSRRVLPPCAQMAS
Source text: as §1

[3] = target: T2, EGFR (Homo sapiens, UniProt P00533); assay: 33PanQinase activity assay; format: biochemical; conditions: for Residual activity: EGF-R, singlicate
Source text: as §1

[4] = target: T3, EPHB2 (Homo sapiens, UniProt P29323); assay: 33PanQinase activity assay; format: biochemical; conditions: for Residual activity: singlicate
T3 sequence (P29323 19-1055): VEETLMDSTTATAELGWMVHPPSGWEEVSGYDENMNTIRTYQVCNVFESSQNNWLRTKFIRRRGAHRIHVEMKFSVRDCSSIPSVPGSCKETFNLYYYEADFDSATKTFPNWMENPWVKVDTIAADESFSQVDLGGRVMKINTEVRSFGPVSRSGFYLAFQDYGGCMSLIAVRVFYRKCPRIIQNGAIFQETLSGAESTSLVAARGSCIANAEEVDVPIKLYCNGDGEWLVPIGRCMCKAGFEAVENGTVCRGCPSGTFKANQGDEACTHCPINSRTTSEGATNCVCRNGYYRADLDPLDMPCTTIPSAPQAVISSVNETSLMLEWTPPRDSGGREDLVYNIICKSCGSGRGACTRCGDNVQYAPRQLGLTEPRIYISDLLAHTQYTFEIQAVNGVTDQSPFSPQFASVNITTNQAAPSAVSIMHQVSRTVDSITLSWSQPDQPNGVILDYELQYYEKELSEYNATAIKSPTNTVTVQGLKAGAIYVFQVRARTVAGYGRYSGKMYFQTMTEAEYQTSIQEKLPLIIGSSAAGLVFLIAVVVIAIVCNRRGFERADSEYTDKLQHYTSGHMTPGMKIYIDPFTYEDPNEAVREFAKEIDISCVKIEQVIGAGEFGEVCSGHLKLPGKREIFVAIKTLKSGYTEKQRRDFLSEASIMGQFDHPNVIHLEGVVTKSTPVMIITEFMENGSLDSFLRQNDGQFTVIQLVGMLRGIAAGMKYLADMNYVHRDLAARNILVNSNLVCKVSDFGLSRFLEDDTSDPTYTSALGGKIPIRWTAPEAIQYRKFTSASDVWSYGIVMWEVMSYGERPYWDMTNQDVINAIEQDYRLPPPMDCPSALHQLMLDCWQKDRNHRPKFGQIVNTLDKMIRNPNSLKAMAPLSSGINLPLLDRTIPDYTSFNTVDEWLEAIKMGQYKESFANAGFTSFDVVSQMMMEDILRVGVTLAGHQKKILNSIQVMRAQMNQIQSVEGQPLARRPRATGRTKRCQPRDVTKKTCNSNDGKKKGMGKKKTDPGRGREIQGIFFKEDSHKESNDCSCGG
Source text: as §1

[5] = target: ERBB2 (Homo sapiens, UniProt P04626); assay: 33PanQinase activity assay; format: biochemical; conditions: for Residual activity: singlicate
Source text: as §1

[6] = target: MAP4K4 (Homo sapiens, UniProt O95819); assay: 33PanQinase activity assay; format: biochemical; conditions: for MAP4K4 inhibition: 10 μM; for Residual activity: singlicate
Source text: as §1

[7] = target: MAP4K5 (Homo sapiens, UniProt Q9Y4K4); assay: 33PanQinase activity assay; format: biochemical; conditions: for Residual activity: singlicate
Source text: as §1

[8] = target: MINK1 (Homo sapiens, UniProt Q8N4C8); assay: 33PanQinase activity assay; format: biochemical; conditions: for Residual activity: singlicate
Source text: as §1

[9] = target: MKNK1 (Homo sapiens, UniProt Q9BUB5); assay: 33PanQinase activity assay; format: biochemical; conditions: for Residual activity: singlicate
Source text: as §1

[10] = target: MKNK2 (Homo sapiens, UniProt Q9HBH9); assay: 33PanQinase activity assay; format: biochemical; conditions: for Residual activity: singlicate
Source text: as §1

[11] = target: NIK (Homo sapiens, UniProt Q99558); assay: 33PanQinase activity assay; format: biochemical; conditions: for Residual activity: NIK, singlicate
Source text: as §1

[12] = target: PIM1 (Homo sapiens, UniProt P11309); assay: 33PanQinase activity assay; format: biochemical; conditions: for Residual activity: singlicate
Source text: as §1

[13] = target: RIPK2 (Homo sapiens, UniProt O43353); assay: 33PanQinase activity assay; format: biochemical; conditions: for Residual activity, RIPK2: kinase RIPK2, singlicate
Source text: as §1

[14] = target: SLK (Homo sapiens, UniProt Q9H2G2); assay: 33PanQinase activity assay; format: biochemical; conditions: for SLK inhibition: 10 μM; for Residual activity, SLK: kinase SLK, singlicate
Source text: as §1

[15] = target: T2, EGFR; assay: ProQinase in-cell EGFR assay (EGFR phosphorylation in A431 cells); format: cell-based; parameters: This cell line endogenously expresses a high level of EGFR; endogenous in cells; host or cells: A431
Source text: In addition, we ran an EGFR in-cell target engagement assay, measuring in-cell EGFR phosphorylation, using the human epidermoid carcinoma cell line A431. This cell line endogenously expresses a high level of EGFR, and stimulation of these cells with human epidermal growth factor (EGF) results in receptor tyrosine autophosphorylation.

[16] = ProQinase in-cell EGFR assay, A431 cells, n = 1

Chain of MKNK2 (Q9HBH9 whole entry): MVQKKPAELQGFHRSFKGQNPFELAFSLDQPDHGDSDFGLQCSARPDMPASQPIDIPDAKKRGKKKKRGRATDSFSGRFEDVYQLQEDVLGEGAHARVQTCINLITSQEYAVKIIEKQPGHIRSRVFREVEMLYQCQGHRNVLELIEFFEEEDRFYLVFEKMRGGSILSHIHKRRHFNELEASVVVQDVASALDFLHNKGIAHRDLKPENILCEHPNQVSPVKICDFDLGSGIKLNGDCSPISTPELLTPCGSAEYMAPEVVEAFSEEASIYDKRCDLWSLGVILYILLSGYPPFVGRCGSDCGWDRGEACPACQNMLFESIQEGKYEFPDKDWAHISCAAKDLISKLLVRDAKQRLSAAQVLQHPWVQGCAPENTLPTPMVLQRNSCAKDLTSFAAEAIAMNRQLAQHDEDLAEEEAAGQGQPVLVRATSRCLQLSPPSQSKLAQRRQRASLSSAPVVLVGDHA
Chain of Aurora-B (Q96GD4 whole entry): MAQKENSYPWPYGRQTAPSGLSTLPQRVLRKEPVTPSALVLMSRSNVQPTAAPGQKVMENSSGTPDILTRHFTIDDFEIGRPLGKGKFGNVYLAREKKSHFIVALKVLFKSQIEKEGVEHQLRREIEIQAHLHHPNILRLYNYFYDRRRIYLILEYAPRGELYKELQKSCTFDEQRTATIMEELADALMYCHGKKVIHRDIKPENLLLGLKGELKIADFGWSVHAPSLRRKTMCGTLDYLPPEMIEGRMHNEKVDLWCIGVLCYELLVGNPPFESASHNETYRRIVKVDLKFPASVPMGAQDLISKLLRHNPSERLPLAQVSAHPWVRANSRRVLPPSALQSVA
Chain of MAP4K5 (Q9Y4K4 whole entry): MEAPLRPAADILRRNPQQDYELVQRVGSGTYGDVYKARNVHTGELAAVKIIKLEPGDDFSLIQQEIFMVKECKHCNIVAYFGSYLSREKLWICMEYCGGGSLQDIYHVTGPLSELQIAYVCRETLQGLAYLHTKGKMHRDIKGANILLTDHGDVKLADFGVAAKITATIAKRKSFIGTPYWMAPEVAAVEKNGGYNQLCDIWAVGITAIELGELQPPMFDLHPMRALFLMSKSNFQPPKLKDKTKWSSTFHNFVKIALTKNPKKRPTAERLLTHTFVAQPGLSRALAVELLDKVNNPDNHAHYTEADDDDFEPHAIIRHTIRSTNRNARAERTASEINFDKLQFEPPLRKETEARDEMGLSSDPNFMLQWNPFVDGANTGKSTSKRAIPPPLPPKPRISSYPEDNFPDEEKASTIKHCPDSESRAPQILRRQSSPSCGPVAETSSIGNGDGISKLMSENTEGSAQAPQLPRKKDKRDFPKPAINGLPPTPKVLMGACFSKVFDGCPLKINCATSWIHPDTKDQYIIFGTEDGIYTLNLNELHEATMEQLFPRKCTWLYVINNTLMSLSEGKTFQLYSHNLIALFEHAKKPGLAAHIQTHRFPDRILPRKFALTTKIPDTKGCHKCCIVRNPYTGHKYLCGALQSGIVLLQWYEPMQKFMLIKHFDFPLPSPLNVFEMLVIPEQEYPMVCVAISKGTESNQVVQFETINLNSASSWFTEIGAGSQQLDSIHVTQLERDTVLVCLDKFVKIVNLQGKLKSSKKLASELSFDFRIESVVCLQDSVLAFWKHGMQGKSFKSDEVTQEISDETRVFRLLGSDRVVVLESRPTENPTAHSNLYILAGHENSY
Chain of PIM1 (P11309 whole entry): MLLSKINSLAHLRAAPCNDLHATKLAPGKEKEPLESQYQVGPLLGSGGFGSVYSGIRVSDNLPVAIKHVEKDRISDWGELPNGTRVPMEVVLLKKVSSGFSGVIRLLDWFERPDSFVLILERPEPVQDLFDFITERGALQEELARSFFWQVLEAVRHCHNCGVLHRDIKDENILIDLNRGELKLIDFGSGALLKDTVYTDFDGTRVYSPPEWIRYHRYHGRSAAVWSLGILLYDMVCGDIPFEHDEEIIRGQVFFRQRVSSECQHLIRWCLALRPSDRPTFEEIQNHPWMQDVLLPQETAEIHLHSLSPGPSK
Chain of ERBB2 (P04626 23-1255): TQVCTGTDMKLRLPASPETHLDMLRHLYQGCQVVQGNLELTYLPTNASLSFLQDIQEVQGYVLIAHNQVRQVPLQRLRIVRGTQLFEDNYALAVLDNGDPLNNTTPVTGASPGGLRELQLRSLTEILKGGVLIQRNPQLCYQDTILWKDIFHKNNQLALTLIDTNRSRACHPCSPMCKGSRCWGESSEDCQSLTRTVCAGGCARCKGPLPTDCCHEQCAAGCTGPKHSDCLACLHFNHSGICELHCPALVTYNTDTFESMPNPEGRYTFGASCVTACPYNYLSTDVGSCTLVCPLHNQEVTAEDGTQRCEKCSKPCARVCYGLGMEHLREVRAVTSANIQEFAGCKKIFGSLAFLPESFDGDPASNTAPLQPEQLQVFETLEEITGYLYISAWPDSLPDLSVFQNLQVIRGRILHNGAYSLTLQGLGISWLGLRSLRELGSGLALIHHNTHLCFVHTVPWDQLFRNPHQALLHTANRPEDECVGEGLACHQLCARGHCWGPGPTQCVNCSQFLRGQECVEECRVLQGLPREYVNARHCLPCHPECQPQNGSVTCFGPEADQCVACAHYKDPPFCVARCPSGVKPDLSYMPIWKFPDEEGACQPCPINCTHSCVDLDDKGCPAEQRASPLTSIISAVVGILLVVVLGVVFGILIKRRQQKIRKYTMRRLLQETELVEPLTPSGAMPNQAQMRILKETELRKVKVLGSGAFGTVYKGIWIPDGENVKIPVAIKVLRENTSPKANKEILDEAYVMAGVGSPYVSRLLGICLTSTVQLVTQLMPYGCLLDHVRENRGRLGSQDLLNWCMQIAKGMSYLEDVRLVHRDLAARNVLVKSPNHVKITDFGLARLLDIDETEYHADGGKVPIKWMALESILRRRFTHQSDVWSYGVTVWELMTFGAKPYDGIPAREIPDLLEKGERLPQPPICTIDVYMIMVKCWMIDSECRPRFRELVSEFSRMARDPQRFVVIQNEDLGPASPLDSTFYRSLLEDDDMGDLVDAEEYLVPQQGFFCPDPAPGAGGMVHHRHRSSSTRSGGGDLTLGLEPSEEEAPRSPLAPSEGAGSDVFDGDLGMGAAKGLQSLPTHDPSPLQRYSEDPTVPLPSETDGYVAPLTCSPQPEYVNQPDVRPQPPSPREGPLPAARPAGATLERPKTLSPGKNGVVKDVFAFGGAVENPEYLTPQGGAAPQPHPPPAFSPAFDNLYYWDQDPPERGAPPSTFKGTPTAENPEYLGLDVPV
Chain of MINK1 (Q8N4C8 whole entry): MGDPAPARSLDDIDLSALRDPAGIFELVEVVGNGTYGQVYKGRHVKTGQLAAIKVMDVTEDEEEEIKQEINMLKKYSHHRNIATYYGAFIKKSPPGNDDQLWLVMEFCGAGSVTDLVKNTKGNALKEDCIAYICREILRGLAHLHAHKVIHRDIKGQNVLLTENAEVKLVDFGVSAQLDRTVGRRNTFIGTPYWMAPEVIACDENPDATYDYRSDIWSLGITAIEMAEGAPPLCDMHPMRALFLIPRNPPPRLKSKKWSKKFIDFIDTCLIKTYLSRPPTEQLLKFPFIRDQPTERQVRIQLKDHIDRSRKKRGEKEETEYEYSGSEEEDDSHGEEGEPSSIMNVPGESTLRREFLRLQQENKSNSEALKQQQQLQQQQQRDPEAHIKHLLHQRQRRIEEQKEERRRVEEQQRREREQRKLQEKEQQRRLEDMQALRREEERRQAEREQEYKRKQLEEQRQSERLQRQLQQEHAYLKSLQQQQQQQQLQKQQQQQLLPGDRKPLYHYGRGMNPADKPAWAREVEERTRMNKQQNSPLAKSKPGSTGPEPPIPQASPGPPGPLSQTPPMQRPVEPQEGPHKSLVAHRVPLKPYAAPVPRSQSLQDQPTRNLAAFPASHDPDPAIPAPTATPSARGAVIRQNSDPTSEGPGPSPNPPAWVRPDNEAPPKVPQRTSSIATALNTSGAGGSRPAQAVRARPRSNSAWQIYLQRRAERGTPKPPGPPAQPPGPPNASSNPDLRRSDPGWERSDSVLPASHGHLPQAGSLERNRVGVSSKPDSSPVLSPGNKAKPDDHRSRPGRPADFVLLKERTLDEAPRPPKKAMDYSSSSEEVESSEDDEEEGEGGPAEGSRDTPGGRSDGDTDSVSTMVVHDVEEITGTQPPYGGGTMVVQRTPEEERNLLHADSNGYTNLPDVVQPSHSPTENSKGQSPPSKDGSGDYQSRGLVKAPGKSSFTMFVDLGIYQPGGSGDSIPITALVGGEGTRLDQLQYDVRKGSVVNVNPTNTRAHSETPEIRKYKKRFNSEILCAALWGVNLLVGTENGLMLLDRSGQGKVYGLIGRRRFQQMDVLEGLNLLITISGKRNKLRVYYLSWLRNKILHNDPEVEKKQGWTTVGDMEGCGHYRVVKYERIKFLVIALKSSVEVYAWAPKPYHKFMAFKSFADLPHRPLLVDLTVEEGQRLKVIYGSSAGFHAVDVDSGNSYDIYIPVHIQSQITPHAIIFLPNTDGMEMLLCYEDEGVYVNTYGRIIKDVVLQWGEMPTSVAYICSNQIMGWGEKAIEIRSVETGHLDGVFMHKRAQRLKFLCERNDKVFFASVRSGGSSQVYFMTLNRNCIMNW
Chain of MKNK1 (Q9BUB5 whole entry): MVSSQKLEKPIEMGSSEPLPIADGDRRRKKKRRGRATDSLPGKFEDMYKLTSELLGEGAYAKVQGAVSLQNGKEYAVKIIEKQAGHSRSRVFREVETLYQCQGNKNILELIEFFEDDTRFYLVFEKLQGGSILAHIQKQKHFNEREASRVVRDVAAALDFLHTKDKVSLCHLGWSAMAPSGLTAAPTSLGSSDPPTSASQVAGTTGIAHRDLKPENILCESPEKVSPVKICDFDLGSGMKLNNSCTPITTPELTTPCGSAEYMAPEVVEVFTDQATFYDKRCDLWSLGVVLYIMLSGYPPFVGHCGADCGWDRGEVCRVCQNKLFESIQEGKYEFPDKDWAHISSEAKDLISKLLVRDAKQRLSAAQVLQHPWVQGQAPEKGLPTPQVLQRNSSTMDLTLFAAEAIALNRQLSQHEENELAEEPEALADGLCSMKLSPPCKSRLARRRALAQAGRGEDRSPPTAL

C#Cc1cc(Nc2ncnc3cc(I)ccc23)ccc1Cl [Compound 41]
Aurora-B inhibition ([1]; 10 μM): > 50% | Residual activity ([1]; 1.0E-06 M): 30 % of control | Residual activity ([1]; 1.0E-07 M): 75 % of control | Residual activity ([2]; 1.0E-06 M): 70 % of control | Residual activity ([2]; 1.0E-07 M): 89 % of control | EGFR inhibition ([3]; 1 μM): > 50% | EGFR inhibition ([3]; 10 μM): > 50% | Residual activity ([3]; 1.0E-06 M): 8 % of control | Residual activity ([3]; 1.0E-07 M): 28 % of control | Residual activity ([4]; EPHB2, 1.0E-06 M): 58 % of control | Residual activity ([4]; EPHB2, 1.0E-07 M): 79 % of control | Residual activity ([5]; ERBB2, 1.0E-06 M): 78 % of control | Residual activity ([5]; ERBB2, 1.0E-07 M): 96 % of control | MAP4K4 inhibition [6]: > 50% | Residual activity ([6]; MAP4K4, 1.0E-06 M): 41 % of control | Residual activity ([6]; MAP4K4, 1.0E-07 M): 73 % of control | Residual activity ([7]; MAP4K5, 1.0E-06 M): 70 % of control | Residual activity ([7]; MAP4K5, 1.0E-07 M): 101 % of control | Residual activity ([8]; MINK1, 1.0E-06 M): 54 % of control | Residual activity ([8]; MINK1, 1.0E-07 M): 64 % of control | Residual activity ([9]; MKNK1, 1.0E-06 M): 63 % of control | Residual activity ([9]; MKNK1, 1.0E-07 M): 79 % of control | Residual activity ([10]; MKNK2, 1.0E-06 M): 74 % of control | Residual activity ([10]; MKNK2, 1.0E-07 M): 92 % of control | Residual activity ([11]; 1.0E-06 M): 120 % of control | Residual activity ([11]; 1.0E-07 M): 126 % of control | Residual activity ([12]; PIM1, 1.0E-06 M): 71 % of control | Residual activity ([12]; PIM1, 1.0E-07 M): 85 % of control | Residual activity, RIPK2 ([13]; assay conc. 1.0E-06 M): 96 % of control | Residual activity, RIPK2 ([13]; assay conc. 1.0E-07 M): 107 % of control | SLK inhibition [14]: > 50% | Residual activity, SLK ([14]; assay conc. 1.0E-06 M): 32 % of control | Residual activity, SLK ([14]; assay conc. 1.0E-07 M): 67 % of control | IC50 [15, 16]: 3.7 µM

C#Cc1cc(Nc2ncnc3cc(OC)c(OC)cc23)ccc1Cl [Compound 45]
Residual activity ([1]; 1.0E-06 M): 43 % of control | Residual activity ([1]; 1.0E-07 M): 91 % of control | Aurora-C inhibition ([2]; 10 μM): > 50% | Residual activity ([2]; 1.0E-06 M): 85 % of control | Residual activity ([2]; 1.0E-07 M): 98 % of control | EGFR inhibition ([3]; 1 μM): > 50% | EGFR inhibition ([3]; 10 μM): > 50% | Residual activity ([3]; 1.0E-06 M): 0 % of control | Residual activity ([3]; 1.0E-07 M): 2 % of control | EPHB2 inhibition ([4]; 10 μM): > 50% | Residual activity ([4]; EPHB2, 1.0E-06 M): 11 % of control | Residual activity ([4]; EPHB2, 1.0E-07 M): 50 % of control | ERBB2 inhibition ([5]; 1 μM): moderate inhibition | Residual activity ([5]; ERBB2, 1.0E-06 M): 11 % of control | Residual activity ([5]; ERBB2, 1.0E-07 M): 44 % of control | MAP4K4 inhibition [6]: > 50% | Residual activity ([6]; MAP4K4, 1.0E-06 M): 48 % of control | Residual activity ([6]; MAP4K4, 1.0E-07 M): 87 % of control | MAP4K5 inhibition ([7]; 10 μM): > 50% | Residual activity ([7]; MAP4K5, 1.0E-06 M): 22 % of control | Residual activity ([7]; MAP4K5, 1.0E-07 M): 108 % of control | MINK1 inhibition ([8]; 10 μM): > 50% | Residual activity ([8]; MINK1, 1.0E-06 M): 29 % of control | Residual activity ([8]; MINK1, 1.0E-07 M): 86 % of control | MKNK1 inhibition ([9]; 10 μM): > 50% | Residual activity ([9]; MKNK1, 1.0E-06 M): 30 % of control | Residual activity ([9]; MKNK1, 1.0E-07 M): 63 % of control | MKNK2 inhibition ([10]; 10 μM): > 50% | Residual activity ([10]; MKNK2, 1.0E-06 M): 46 % of control | Residual activity ([10]; MKNK2, 1.0E-07 M): 78 % of control | NIK inhibition ([11]; 10 μM): > 50% | Residual activity ([11]; 1.0E-06 M): 122 % of control | Residual activity ([11]; 1.0E-07 M): 127 % of control | PIM1 inhibition ([12]; 10 μM): > 50% | Residual activity ([12]; PIM1, 1.0E-06 M): 38 % of control | Residual activity ([12]; PIM1, 1.0E-07 M): 73 % of control | RIPK2 inhibition ([13]; 10 μM): > 50% | Residual activity, RIPK2 ([13]; assay conc. 1.0E-06 M): 13 % of control | Residual activity, RIPK2 ([13]; assay conc. 1.0E-07 M): 59 % of control | SLK inhibition [14]: > 50% | Residual activity, SLK ([14]; assay conc. 1.0E-06 M): 18 % of control | Residual activity, SLK ([14]; assay conc. 1.0E-07 M): 76 % of control | IC50 [15, 16]: 0.018 µM | IC50 ([15]; in-cell EGFR inhibition): < 0.1 µM
